{"source": "patent US5792467A", "about": "“Repellent compositions containing aromatic aldehydes” (Proguard, Inc., priority 1996, dated 1998)", "key": {"[1]": {"test_system": "Western Flower Thrips (Thysanoptera)", "test": "Repellency to Western Flower Thrips on alfalfa inflorescence", "assay_type": "in vivo", "settings": "2% coniferyl aldehyde, 1% Tween 80", "description": "Western Flower Thrips (Thysanoptera) were collected in the field on infested alfalfa (Medicago sativa). Alfalfa inflorescence were cut then dipped in either a coniferyl aldehyde formulation (2% coniferyl aldehyde, 1% Tween 80) or a water control, then were placed in an experimental arena (approximately 9 cm in diameter by 6 centimeter in height) on a Whatman filter paper disk covering the floor of the arena. Approximately fifty (50) to sixty (60) insects were aspirated into the experimental arena which was then covered with a transparent lid. […] Repellency was determined by the relative number of individuals who successfully maintained feeding and colonization on the inflorescence over time."}, "[2]": {"settings": "33% DEET; cited from earlier work"}, "[3]": {"settings": "25° C.; cited from earlier work"}, "[4]": {"test_system": "Aedes Aegypsi (yellow fever mosquito)", "test": "Median Effective Dose to repel Aedes aegypti, mosquito blood feeder", "assay_type": "in vivo", "settings": "Bandruche membrane, 37°, acetone formulation", "experimental": "Median Effective Dose (ED50) is defined as the amount of chemical required to repel 50% of a target pest. […] The test system used was a mosquito blood feeder, which includes a constant temperature water circulator to warm the blood in the feeder, and the test cage. The blood was maintained at 37°. The blood feeder has five circular blood reservoirs, each of which is filled with outdated blood obtained from the Walter Reed Army Medical Center and certified safe according to Blood Bank testing procedures. The blood was replenished with adenosine triphosphate (ATP), without which the mosquitoes will not feed freely. The blood-filledreservoirs were covered with a Bandruche membrane (a standard membrane barrier). […] DEET was used as a positive control in a similar manner. A negative control formulation (water only) also was tested. The mosquitoes were given access to the blood reservoirs on a \"free feeding\" basis by means of a sliding door in the bottom of the test cage."}, "[5]": {"settings": "cited from earlier work"}, "human": {"test_system": "human", "settings": "cited from earlier work"}, "[6]": {"test_system": "malaria mosquito (Anopheles quadrimaculatus Say)", "test": "Direct skin application, protection time against malaria mosquito", "assay_type": "in vivo", "settings": "1 ml 100% HCA on forearm", "experimental": "(§1) A glove was worn to protect the untreated hand while the treated forearm was exposed in a cage containing a high number (2,000-4,000) of unfed mosquitoes for 3 minutes at intervals of approximately 30 minutes until two bites were received (two bites in one test period or one bite in each of two consecutive test periods). The time interval between application and when two bites were received was defined as the \"protection time.\" The repellent classes based on protection time (minutes) are listed below: […]"}, "human subjects [7]": {"test_system": "human subjects", "settings": "12% in petrolatum, 48 hour closed patch; cited from earlier work"}, "[8]": {"test_system": "patients sensitive to 2% cinnamaldehyde", "settings": "human, in vivo; cited from earlier work"}, "[9]": {"test_system": "yellow fever mosquito (Aedes aegypti (L))", "test": "Direct skin application, protection time against yellow fever mosquito", "assay_type": "in vivo", "settings": "1 ml 100% HCA on forearm", "experimental": "as §1"}, "[10]": {"settings": "cited from earlier work", "remark": "listed apart in the source"}, "[11]": {"test_system": "eczema and dermatitis patients", "settings": "human, in vivo; cited from earlier work"}, "yellow fever mosquito": {"test_system": "yellow fever mosquito", "test": "Application to clothing, treated stocking against yellow fever mosquito", "assay_type": "in vivo, Aedes aegypti", "settings": "cotton stocking, 3.3 g/ft^2", "experimental": "HCA also was evaluated on treated cloth against the yellow fever mosquito. In these tests, women's mercerized-cotton stockings were used. […] The stocking was spread on a rack to dry and then hung indoors on a line. The first tests were done 24 hours after treatment. The treated stocking was drawn over the arm, with the treated portion midway on the forearm. The untreated hand was protected with a glove and the stocking-covered arm was exposed for one minute in a testcage. If 5 bites were received, the treatment was considered ineffective. If less than 5 bites were received; the exposures were continued daily until the 14th day and at weekly or biweekly intervals thereafter."}, "rats": {"test_system": "rats", "settings": "rat, in vivo; cited from earlier work"}, "human subjects [12]": {"test_system": "human subjects", "settings": "20% in diethylphthalate, 100 human subjects; cited from earlier work"}, "[13]": {"test_system": "grape phylloxera (Daktulosphaira vitifoliae Fitch)", "test": "Treatment of grapevine leaves for control of root forms of grape phylloxera", "assay_type": "in vivo", "settings": "for Number of Phylloxera on 6 root sections, Eggs: water 52; for Number of Phylloxera on 6 root sections, 1st instar / Number of Phylloxera on 6 root sections, 2nd instar / Number of Phylloxera on 6 root sections, 3rd instar: water 7; for Number of Phylloxera on 6 root sections, 4th instar: water 13; for Number of Phylloxera on 6 root sections, Adults: water 16", "experimental": "The root form of grape phylloxera (Daktulosphaira vitifoliae Fitch) is arguably the most devastating grape insect world wide. In this experiment, cinnamic aldehyde formulated with 1% Tween 80 was tested for ability to control phylloxera. One year old potted V. vinifera cultivar merlot plants were used that had been obtained from Foundation Plant Material Service, University of California, Davis. The plants were potted in 10 cm diameter ports and were infested with phylloxera 5 weeks prior to treatment. At the time of spraying, plant pots were placed in a plastic bag so that chemical runoff from the leaf sprays would not drip into the soil. Spray was applied to runoff with a household 1 liter-capacity plastic spray bottle. Plants were allowed to air dry outside and then replaced in the greenhouse. At intervals thereafter, the roots were separated from the potting mix and total phylloxera population estimated.\nRoots from plants at 5 weeks post-treatment were excised and 6 root sections, about 3 mm diameter by 4 cm length were cleaned of infestations and used in a bioassay. For this bioassay, root sections were inoculated with 20 eggs and the roots maintained as the colonies were maintained. After 25 days, the number of individuals of each age class were counted."}}, "note": "Entries after “also recorded” stand apart in the source; their conditions may differ. Where two headings read alike, the source gives them in different places.", "data": [{"compound": "COc1cc(/C=C/C=O)ccc1O", "note": "[Coniferyl Aldehyde, coniferyl aldehyde]", "values": [{"measurement": "Number of insects on inflorescence (colonization and feeding)", "setting": "[1]; about 50-60 insects, 30 min, water control 22(alive)", "value": "2(dead)"}, {"measurement": "Description of insect behavior", "setting": "[1]; control tranquil, normal flight, feeding", "value": "Irritated by treatment; also recorded: extreme agitation; also recorded: frequent flying. No"}, {"measurement": "Length of insect residence time on inflorescence", "setting": "[1]; max, water control 30 minutes", "value": "≤ 15", "unit": "s"}]}, {"compound": "CCN(CC)C(=O)c1cccc(C)c1", "note": "[DEET, N,N-diethyl-1,3-methylbenzamide]", "values": [{"measurement": "duration of protection", "setting": "[2]", "value": "10 to 14", "unit": "h"}, {"measurement": "vapor pressure", "setting": "[3]", "value": "167×10^-5 mm Hg"}, {"measurement": "Median Effective Dose (ED50)", "setting": "[4]", "value": 0.0124, "unit": "mg/cm^2"}, {"measurement": "adverse effects", "setting": "[5]; repeated use on skin in high concentrations", "value": "can cause allergic and toxic effects"}]}, {"compound": "CCCCCCC(C=O)=Cc1ccccc1", "note": "[HCA, 2-(phenylmethylene) octanal]", "values": [{"measurement": "human maximization test result", "setting": "human; in vivo", "value": "negative"}, {"measurement": "protection time", "setting": "[6]", "value": "31 to 60", "unit": "min"}, {"measurement": "repellent class based on protection time", "setting": "[6]; USDA rating scale", "value": "2 (31-60)"}, {"measurement": "irritation", "setting": "human subjects [7]", "value": "no irritation"}, {"measurement": "patients found to be sensitive", "setting": "[8]", "value": "none"}, {"measurement": "protection time", "setting": "[9]", "value": "121 to 180", "unit": "min"}, {"measurement": "repellent class based on protection time", "setting": "[9]; USDA rating scale", "value": "3 (121-180)"}, {"measurement": "dermal LD50", "setting": "[10]", "value": "greater than 3 g/kg"}, {"measurement": "patch test positive results out of 100", "setting": "[11]", "value": 0}, {"measurement": "duration of effectiveness on treated cloth", "setting": "yellow fever mosquito", "value": "more than 10 days"}, {"measurement": "protection time grade on treated cloth", "setting": "yellow fever mosquito", "value": "4 (effective for more than 10 days)"}, {"measurement": "Median Effective Dose (ED50)", "setting": "[4]", "value": 0.0031, "unit": "mg/cm^2"}, {"measurement": "oral LD50", "setting": "rats", "value": 3100, "unit": "mg/kg"}, {"measurement": "positive reactions, repeated insult patch test", "setting": "human subjects [12]", "value": "no positive reactions"}]}, {"compound": "O=C/C=C/c1ccccc1", "note": "[cinnamic aldehyde]", "values": [{"measurement": "human maximization test result", "setting": "human; literature data, Jimbo (1983)", "value": "positive reaction"}, {"measurement": "Number of Phylloxera on 6 root sections, Eggs", "setting": "[13]; 300 ppm, 1% Tween 80, roots 5 weeks post-treatment, 25 days", "value": 16}, {"measurement": "Number of Phylloxera on 6 root sections, 1st instar", "setting": "[13]; 300 ppm", "value": 0}, {"measurement": "Number of Phylloxera on 6 root sections, 2nd instar", "setting": "[13]; 300 ppm", "value": 6}, {"measurement": "Number of Phylloxera on 6 root sections, 3rd instar", "setting": "[13]; 300 ppm", "value": 5}, {"measurement": "Number of Phylloxera on 6 root sections, 4th instar", "setting": "[13]; 300 ppm", "value": 0}, {"measurement": "Number of Phylloxera on 6 root sections, Adults", "setting": "[13]; 300 ppm", "value": 4}, {"measurement": "Number of Phylloxera on 6 root sections, 1st instar", "setting": "[13]; 1000 ppm", "value": 0}, {"measurement": "Number of Phylloxera on 6 root sections, 2nd instar", "setting": "[13]; 1000 ppm", "value": 1}, {"measurement": "Number of Phylloxera on 6 root sections, 3rd instar", "setting": "[13]; 1000 ppm", "value": 4}, {"measurement": "Number of Phylloxera on 6 root sections, 4th instar", "setting": "[13]; 1000 ppm", "value": 2}, {"measurement": "Number of Phylloxera on 6 root sections, Adults", "setting": "[13]; 1000 ppm", "value": 1}, {"measurement": "Number of Phylloxera on 6 root sections, Eggs", "setting": "[13]; 1000 ppm", "value": 2}, {"measurement": "Number of Phylloxera on 6 root sections, 1st instar", "setting": "[13]; 3000 ppm", "value": 0}, {"measurement": "Number of Phylloxera on 6 root sections, 2nd instar", "setting": "[13]; 3000 ppm", "value": 2}, {"measurement": "Number of Phylloxera on 6 root sections, 3rd instar", "setting": "[13]; 3000 ppm", "value": 1}, {"measurement": "Number of Phylloxera on 6 root sections, 4th instar", "setting": "[13]; 3000 ppm", "value": 1}, {"measurement": "Number of Phylloxera on 6 root sections, Adults", "setting": "[13]; 3000 ppm", "value": 0}, {"measurement": "Number of Phylloxera on 6 root sections, Eggs", "setting": "[13]; 3000 ppm", "value": 0}, {"measurement": "Number of Phylloxera on 6 root sections, 1st instar", "setting": "[13]; 10,000 ppm", "value": 0}, {"measurement": "Number of Phylloxera on 6 root sections, 2nd instar", "setting": "[13]; 10,000 ppm", "value": 2}, {"measurement": "Number of Phylloxera on 6 root sections, 3rd instar", "setting": "[13]; 10,000 ppm", "value": 0}, {"measurement": "Number of Phylloxera on 6 root sections, 4th instar", "setting": "[13]; 10,000 ppm", "value": 0}, {"measurement": "Number of Phylloxera on 6 root sections, Adults", "setting": "[13]; 10,000 ppm", "value": 0}, {"measurement": "Number of Phylloxera on 6 root sections, Eggs", "setting": "[13]; 10,000 ppm", "value": 0}, {"measurement": "duration of resistance of excised roots to phylloxera reinfestation", "setting": "[13]; after foliage treatment", "value": "at least 5 weeks"}, {"measurement": "feeding sites after foliage treatment", "setting": "[13]; foliage of whole plants treated", "value": "Vacant feeding sites were seen"}]}, {"compound": "CCCC(O)C(CC)CO", "note": "(stereo not shown) [ethyl hexanediol]", "values": [{"measurement": "adverse effects", "setting": "[5]; basis of 1991 EPA cancellation of registrations", "value": "possible adverse effects of the compound on fetal development"}]}]}
